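Following 48 hours of exposure in 96-well plates, responses at five concentrations were used to interpolate endpoints linearly. Abbreviation: GI50, concentration required for 50% inhibition of growth.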 Activity calls are given as the source filed them. Cut-off read from the data, not from the text of the source: active = GI50 up to about 1.1 µM and inactive = higher.
Columns and labels:
Test in all cases: NCI tumour cell line growth inhibition, 48 h
SR = tested on: SR
K562 = tested on: K562
SK-MEL-28 = tested on: SK-MEL-28
MCF7 = tested on: MCF7
NCI-H226 = tested on: NCI-H226
SF-539 = tested on: SF-539
M14 = tested on: M14
CCRF-CEM = tested on: CCRF-CEM
TK-10 = tested on: TK-10
CAKI-1 = tested on: CAKI-1
UACC-257 = tested on: UACC-257
IGROV-1 = tested on: IGROV-1
SF-295 = tested on: SF-295
NCI-H460 = tested on: NCI-H460
RPMI-8226 = tested on: RPMI-8226
SW-620 = tested on: SW-620
HCT-116 = tested on: HCT-116
RXF 393 = tested on: RXF 393
UO-31 = tested on: UO-31

Compound	GI50 (SR)	GI50 (K562)	GI50 (SK-MEL-28)	GI50 (MCF7)	GI50 (NCI-H226)	GI50 (SF-539)	GI50 (M14)	GI50 (CCRF-CEM)	GI50 (TK-10)	GI50 (CAKI-1)	GI50 (UACC-257)	GI50 (IGROV-1)	GI50 (SF-295)	GI50 (NCI-H460)	GI50 (RPMI-8226)	GI50 (SW-620)	GI50 (HCT-116)	GI50 (RXF 393)	GI50 (UO-31)
COc1ccc(C2C=C(c3ccc(C)cc3)N(c3ccc(OC)cc3[N+](=O)[O-])C3C(=O)OC(=O)C23)c(OC)c1 (configuration not stated)	20.1 µM (inactive)	37.8 µM (inactive)	> 100 µM (inactive)	42.5 µM (inactive)	31.5 µM (inactive)	24.4 µM (inactive)	34.3 µM (inactive)	35.1 µM (inactive)	47.5 µM (inactive)	37.3 µM (inactive)	77.6 µM (inactive)	15.2 µM (inactive)	43.9 µM (inactive)	71.3 µM (inactive)	22 µM (inactive)	28.6 µM (inactive)	28.2 µM (inactive)		
Cc1cc(C)n(C(=O)C(C)Sc2nnc(SC(C)C(=O)n3nc(C)cc3C)s2)n1 (configuration not stated)	> 100 µM (inactive)	> 100 µM (inactive)	> 100 µM (inactive)	> 100 µM (inactive)	> 100 µM (inactive)		> 100 µM (inactive)	> 100 µM (inactive)	> 100 µM (inactive)	> 100 µM (inactive)	> 100 µM (inactive)	> 100 µM (inactive)	> 100 µM (inactive)	> 100 µM (inactive)	> 100 µM (inactive)	> 100 µM (inactive)	> 100 µM (inactive)	> 100 µM (inactive)	> 100 µM (inactive)
CCOc1ccc(NC(=O)C(=O)CC(=O)c2c[n+]([O-])c3cc(C)c(C)cc3[n+]2[O-])cc1	> 100 µM (inactive)	> 100 µM (inactive)	> 100 µM (inactive)		> 100 µM (inactive)	> 100 µM (inactive)	> 100 µM (inactive)	> 100 µM (inactive)	> 100 µM (inactive)	> 100 µM (inactive)	> 100 µM (inactive)	> 100 µM (inactive)	> 100 µM (inactive)	> 100 µM (inactive)	> 100 µM (inactive)	> 100 µM (inactive)	> 100 µM (inactive)	> 100 µM (inactive)	> 100 µM (inactive)
O=c1c2ccccc2nc(-c2ccccc2)n1NC(=S)Nc1ccccc1	> 100 µM (inactive)	> 100 µM (inactive)	34.8 µM (inactive)		> 100 µM (inactive)	> 100 µM (inactive)	> 100 µM (inactive)	> 100 µM (inactive)	> 100 µM (inactive)	> 100 µM (inactive)	> 100 µM (inactive)	> 100 µM (inactive)	> 100 µM (inactive)	> 100 µM (inactive)	> 100 µM (inactive)	> 100 µM (inactive)	> 100 µM (inactive)	> 100 µM (inactive)	81.7 µM (inactive)
Cn1c(=O)n(C2(C)C[Se]C2)c2ccccc21	> 100 µM (inactive)	> 100 µM (inactive)	> 100 µM (inactive)		> 100 µM (inactive)	> 100 µM (inactive)	> 100 µM (inactive)	> 100 µM (inactive)	> 100 µM (inactive)	> 100 µM (inactive)	> 100 µM (inactive)	> 100 µM (inactive)	> 100 µM (inactive)	> 100 µM (inactive)	> 100 µM (inactive)	> 100 µM (inactive)	> 100 µM (inactive)	> 100 µM (inactive)	> 100 µM (inactive)
O=C(NCCCCCCCCNC(=O)c1cccc2ccccc12)c1cccc2ccccc12	> 100 µM (inactive)	> 100 µM (inactive)	> 59 µM (inactive)	71.4 µM (inactive)	8.43 µM (inactive)	4.94 µM (inactive)	34.4 µM (inactive)	> 100 µM (inactive)	12.1 µM (inactive)	18.2 µM (inactive)	> 93.1 µM (inactive)	20.4 µM (inactive)	12.4 µM (inactive)	65.3 µM (inactive)	> 100 µM (inactive)	> 100 µM (inactive)	24.4 µM (inactive)	2.25 µM (inactive)	6.3 µM (inactive)
N#C/C(=C\c1cc(F)cc(F)c1)c1ccccn1	24 µM (inactive)	15.5 µM (inactive)	47 µM (inactive)	26.9 µM (inactive)	17.5 µM (inactive)	19.5 µM (inactive)	25.8 µM (inactive)	18.1 µM (inactive)	30.8 µM (inactive)	39.5 µM (inactive)	32.1 µM (inactive)	54.8 µM (inactive)	16.3 µM (inactive)	22.7 µM (inactive)	14.9 µM (inactive)	> 10 µM (inactive)	27.9 µM (inactive)	26.7 µM (inactive)	34.7 µM (inactive)
NS(=O)(=O)c1ccc(-n2c(-c3cccs3)nc3ccc(I)cc3c2=O)cc1	35 µM (inactive)		17.3 µM (inactive)	23.3 µM (inactive)	27.4 µM (inactive)		23.7 µM (inactive)		25.4 µM (inactive)	19.4 µM (inactive)	0.0522 µM (active)	21.7 µM (inactive)	25.4 µM (inactive)	25.5 µM (inactive)		37.9 µM (inactive)	17.3 µM (inactive)	28.2 µM (inactive)	20 µM (inactive)

From ChEMBL document CHEMBL1201862, “PubChem BioAssay data set” (2004)
